Data on one molecule can be found in BindingDB's records for doi:10.1016/s0960-894x(00)00170-0 (Merck Research Laboratories, 2000).

The target of this test is Thrombin (Homo sapiens). Put plainly: The compound was tested for its ability to inhibit thrombin.

Molecule `Cc1nc(N)ccc1CNC(=O)Cn1c(C)cc2c(c1=O)NC(=O)[C@](C)(CC(C)C)C2` [N-(6-Amino-2-methyl-pyridin-3-ylmethyl)-2-((R)-3-isobutyl-3,6-dimethyl-2,8-dioxo-2,3,4,8-tetrahydro-1H-[1,7]naphthyridin-7-yl)-acetamide] returned a Ki of 0.24 nM.

The Ki is a measure of affinity in units of concentration, obtained from inhibition or displacement.
